Drawing on US20230167118A1, “DEGRADATION OF BRUTON'S TYROSINE KINASE (BTK) BY CONJUGATION OF BTK INIDBITORS WITH E3 LIGASE LIGAND AND METHODS OF USE” (BEIGENE, LTD., priority 2020, published 2023), this text covers DC50 and IC50 for 15 compounds.

Assay [1] deals with T1, BTK (Homo sapiens, UniProt Q06187).
T1 construct: High control=Cell group with added DMSO and without compound, indicating microplate readings without BTK degradation; endogenous in cells; host or cells: TMD-8 cells
Description: Cell Degradation: BTK degradation in TMD-8 cells, HTRF assay. The assay is classed as cell-based. The following applies: 6 h treatment, IC50 (DC50) of BTK degradation. The gist of the method:
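TMD-8 cells treated 6 h with 8-dose 6-fold dilutions in 0.2% DMSO, then lysed and BTK quantified by HTRF (665/620 nm). Degradation % normalised to high/low controls; DC50 from four-parameter fit, Dmax as maximal degradation.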
On the technique in general: Time-resolved FRET reads energy transfer from a long-lived donor to a nearby acceptor.

The test system of assay [2] is HEK-293 cells. In words: HEK-293 Cytotoxicity Assay (CellTiter-Glo). The class given is cell-based. The following applies: Homo sapiens, HEK293, 72 h incubation, CellTiter-Glo luminescence. Put shortly: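 HEK-293 cells treated 72 h with 8 concentrations (4-fold dilutions, 0.2% DMSO final). Viability read by CellTiter-Glo luminescence; IC50 from four-parameter logistic fit of % inhibition.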
On the technique in general: In ATP-based viability assays light output follows the ATP content of the culture.

T1 sequence (Q06187 whole entry): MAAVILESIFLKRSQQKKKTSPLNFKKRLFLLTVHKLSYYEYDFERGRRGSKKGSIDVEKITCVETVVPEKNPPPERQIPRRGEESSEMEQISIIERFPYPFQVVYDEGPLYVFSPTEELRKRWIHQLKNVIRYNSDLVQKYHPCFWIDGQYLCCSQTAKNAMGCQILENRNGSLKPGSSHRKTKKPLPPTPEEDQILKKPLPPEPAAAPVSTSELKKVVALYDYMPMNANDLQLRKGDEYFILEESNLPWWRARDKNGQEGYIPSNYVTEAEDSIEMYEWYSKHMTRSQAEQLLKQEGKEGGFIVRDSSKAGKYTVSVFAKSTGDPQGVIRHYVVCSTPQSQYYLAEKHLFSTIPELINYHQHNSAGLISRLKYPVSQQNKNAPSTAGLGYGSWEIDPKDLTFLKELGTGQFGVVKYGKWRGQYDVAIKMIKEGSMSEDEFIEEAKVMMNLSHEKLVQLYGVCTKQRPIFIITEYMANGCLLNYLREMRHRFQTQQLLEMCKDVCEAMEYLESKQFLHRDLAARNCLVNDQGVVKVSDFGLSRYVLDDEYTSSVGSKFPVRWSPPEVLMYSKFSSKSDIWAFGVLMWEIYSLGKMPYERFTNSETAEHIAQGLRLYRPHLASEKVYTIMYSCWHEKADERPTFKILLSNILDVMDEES

The DC50 is the concentration at which degradation of the target reaches its halfway point. Read a high DC50 as a less potent degrader. The IC50 is the point on the concentration scale where inhibition reaches its midpoint. Read a high IC50 as a need for much substance. In assay [1], `Cc1cc(-c2ncnc3[nH]c(-c4ccc(N5CCN(CC6CCN(c7ccc(N8CCC(=O)NC8=O)cc7)CC6)CC5)cc4)nc23)ccc1[C@@H](C)NC(=O)c1nc(C(C)(C)C)no1` [Example 25, (R)-3-(tert-butyl)-N-(1-(4-(8-(4-(4-((1-(4-(2,4-dioxotetrahydropyrimidin-1(2H)-yl)phenyl)piperidin-4-yl)methyl)piperazin-1-yl)phenyl)-9H-purin-6-yl)-2-methylphenyl)ethyl)-1,2,4-oxadiazole-5-carboxamide] registered a DC50 of 1.4 nM. This compound also registered a half-maximal inhibitory concentration (IC50) in assay [2] of more than 10000 nM.

Regarding `Cc1cc(-c2ncnc3[nH]c(-c4ccc(N5CCN(CC6CCN(c7ccc(N8CCC(=O)NC8=O)cc7)CC6)CC5)cc4)cc23)ccc1[C@@H](C)NC(=O)c1noc(C(C)(C)C)n1` [Example 41, (R)-5-(tert-butyl)-N-(1-(4-(6-(4-(4-((1-(4-(2,4-dioxotetrahydropyrimidin-1(2H)-yl)phenyl)piperidin-4-yl)methyl)piperazin-1-yl)phenyl)-7H-pyrrolo[2,3-d]pyrimidin-4-yl)-2-methylphenyl)ethyl)-1,2,4-oxadiazole-3-carboxamide], in assay [1], the DC50 is 1.3 nM. The 50% inhibitory concentration (IC50) in assay [2] was more than 10000 nM.

Consider `Cc1cc(-c2ncnc3[nH]c(-c4ccc(N5CCN(CC6CCN(c7ccc(N8CCC(=O)NC8=O)c(C)c7)CC6)CC5)nc4)cc23)ccc1[C@@H](C)NC(=O)c1noc(C2(C)CC2)n1` [Example 126, (R)-N-(1-(4-(6-(6-(4-((1-(4-(2,4-dioxotetrahydropyrimidin-1(2H)-yl)-3-methylphenyl)piperidin-4-yl)methyl)piperazin-1-yl)pyridin-3-yl)-7H-pyrrolo[2,3-d]pyrimidin-4-yl)-2-methylphenyl)ethyl)-5-(1-methylcyclopropyl)-1,2,4-oxadiazole-3-carboxamide], for which the DC50 in assay [1] came to 0.41 nM. In assay [2], the half-inhibitory concentration (IC50) is more than 10000 nM.

Compound `COc1ccc(C(=O)N2CCC(CN3CCC(Oc4ccc(-c5cc6c(-c7ccc(CNC(=O)c8nc(C(C)(C)C)no8)c(C)c7)ncnc6[nH]5)cc4)CC3)CC2)cc1N1CCC(=O)NC1=O` [Example 27, 3-(tert-butyl)-N-(4-(6-(4-((1-((1-(3-(2,4-dioxotetrahydropyrimidin-1(2H)-yl)-4-methoxybenzoyl)piperidin-4-yl)methyl)piperidin-4-yl)oxy)phenyl)-7H-pyrrolo[2,3-d]pyrimidin-4-yl)-2-methylbenzyl)-1,2,4-oxadiazole-5-carboxamide] came in with a half-maximal degradation concentration (DC50) in assay [1] of 1.9 nM. This compound had an IC50 in assay [2] of more than 10000 nM.

Compound `Cc1c(-c2ncnc3[nH]c(-c4ccc(N5CCN(CC6CCN(c7ccc(N8CCC(=O)NC8=O)cc7)CC6)CC5)cc4)cc23)cccc1N1CCn2c(cc3c2CC(C)(C)C3)C1=O` [Example 11, 1-(4-(4-((4-(4-(4-(3-(7,7-dimethyl-1-oxo-1,3,4,6,7,8-hexahydro-2H-cyclopenta[4,5]pyrrolo[1,2-a]pyrazin-2-yl)-2-methylphenyl)-7H-pyrrolo[2,3-d]pyrimidin-6-yl)phenyl)piperazin-1-yl)methyl)piperidin-1-yl)phenyl)dihydropyrimidine-2,4(1H,3H)-dione] yielded a DC50 in assay [1] of 4.7 nM. The compound further came in with an IC50 in assay [2] of more than 10000 nM.

`Cc1cc(-c2ncnc3[nH]c(-c4ccc(C5CCN(CC6CN(c7ccc(N8CCC(=O)NC8=O)cc7)C6)CC5)cc4)cc23)ccc1CNC(=O)c1nc(C(C)(C)C)no1` [Example 5, 3-(tert-butyl)-N-(4-(6-(4-(1-((1-(4-(2,4-dioxotetrahydropyrimidin-1(2H)-yl)phenyl)azetidin-3-yl)methyl)piperidin-4-yl)phenyl)-7H-pyrrolo[2,3-d]pyrimidin-4-yl)-2-methylbenzyl)-1,2,4-oxadiazole-5-carboxamide] came in with a DC50 in assay [1] of 1 nM. The same compound returned a half-maximal inhibitory concentration (IC50) in assay [2] of 2960 nM.

In assay [1], `Cc1cc(-c2ncnc3[nH]c(-c4ccc(N5CCN(CC6CCN(c7ccc(N8CCC(=O)NC8=O)c(C)c7)CC6)CC5)cn4)cc23)c(F)cc1[C@@H](C)NC(=O)c1noc(C(C)(C)C)n1` [Example 130, (R)-5-(tert-butyl)-N-(1-(4-(6-(5-(4-((1-(4-(2,4-dioxotetrahydropyrimidin-1(2H)-yl)-3-methylphenyl)piperidin-4-yl)methyl)piperazin-1-yl)pyridin-2-yl)-7H-pyrrolo[2,3-d]pyrimidin-4-yl)-5-fluoro-2-methylphenyl)ethyl)-1,2,4-oxadiazole-3-carboxamide] gave a 50% degradation concentration (DC50) of 0.79 nM. This compound yielded a half-maximal inhibitory concentration (IC50) in assay [2] of more than 10000 nM.

`Cc1cc(-c2ncnc3[nH]c(-c4ccc(N5CCCN(CC6CCN(c7ccc(N8CCC(=O)NC8=O)cc7)CC6)CC5)cc4)cc23)ccc1[C@@H](C)NC(=O)c1nc(C(C)(C)C)no1` [Example 167, (R)-3-(tert-butyl)-N-(1-(4-(6-(4-(4-((1-(4-(2,4-dioxotetrahydropyrimidin-1(2H)-yl)phenyl)piperidin-4-yl)methyl)-1,4-diazepan-1-yl)phenyl)-7H-pyrrolo[2,3-d]pyrimidin-4-yl)-2-methylphenyl)ethyl)-1,2,4-oxadiazole-5-carboxamide] had a half-maximal degradation concentration (DC50) in assay [1] of 2.61 nM. In addition, the concentration for half-maximal inhibition (IC50) in assay [2] was more than 10000 nM.

Take `Cc1cc(-c2ncnc3[nH]c(-c4ccc(C5CCN(CC6CCN(c7ccc(N8CCC(=O)NC8=O)cc7)CC6)CC5)cc4)cc23)ccc1[C@@H](C)NC(=O)c1nc(C(C)(C)C)no1` [Example 7, (R)-3-(tert-butyl)-N-(1-(4-(6-(4-(1-((1-(4-(2,4-dioxotetrahydropyrimidin-1(2H)-yl)phenyl)piperidin-4-yl)methyl)piperidin-4-yl)phenyl)-7H-pyrrolo[2,3-d]pyrimidin-4-yl)-2-methylphenyl)ethyl)-1,2,4-oxadiazole-5-carboxamide]: in assay [1], the half-maximal degradation concentration (DC50) was determined as 1.3 nM. Moreover, in assay [2], the IC50 is 1600 nM.

In turn, `Cc1c([C@@H](C)NC(=O)c2nc(C(C)(C)C)no2)ccc(-c2ncnc3[nH]c(-c4ccc(N5CCN(CC6CCN(c7ccc(N8CCC(=O)NC8=O)cc7)CC6)CC5)cc4)cc23)c1F` [Example 78, (R)-3-(tert-butyl)-N-(1-(4-(6-(4-(4-((1-(4-(2,4-dioxotetrahydropyrimidin-1(2H)-yl)phenyl)piperidin-4-yl)methyl)piperazin-1-yl)phenyl)-7H-pyrrolo[2,3-d]pyrimidin-4-yl)-3-fluoro-2-methylphenyl)ethyl)-1,2,4-oxadiazole-5-carboxamide] showed a DC50 in assay [1] of 0.88 nM. In assay [2], this compound had a 50% inhibitory concentration (IC50) of more than 10000 nM.

In turn, `Cc1cc(-c2ncnc3[nH]c(-c4cnc(N5CCN(CC6CCN(c7ccc(N8CCC(=O)NC8=O)cc7)CC6)CC5)s4)cc23)ccc1[C@@H](C)NC(=O)c1nc(C(C)(C)C)no1` [Example 168, (R)-3-(tert-butyl)-N-(1-(4-(6-(2-(4-((1-(4-(2,4-dioxotetrahydropyrimidin-1(2H)-yl)phenyl)piperidin-4-yl)methyl)piperazin-1-yl)thiazol-5-yl)-7H-pyrrolo[2,3-d]pyrimidin-4-yl)-2-methylphenyl)ethyl)-1,2,4-oxadiazole-5-carboxamide] gave a DC50 in assay [1] of 0.75 nM. For the same compound, in assay [2], the IC50 is more than 10000 nM.

Consider `Cc1cc(-c2ncnc3[nH]c(-c4ccc(C5(O)CCN(CC6CCN(c7ccc(N8CCC(=O)NC8=O)cc7)CC6)C5)cn4)cc23)ccc1[C@@H](C)NC(=O)c1nc(C(C)(C)C)no1` (stereo partly drawn) [Example 180, 3-(tert-butyl)-N-((1R)-1-(4-(6-(5-(1-((1-(4-(2,4-dioxotetrahydropyrimidin-1(2H)-yl)phenyl)piperidin-4-yl)methyl)-3-hydroxypyrrolidin-3-yl)pyridin-2-yl)-7H-pyrrolo[2,3-d]pyrimidin-4-yl)-2-methylphenyl)ethyl)-1,2,4-oxadiazole-5-carboxamide], for which the DC50 in assay [1] was 0.52 nM. The compound also showed a 50% inhibitory concentration (IC50) in assay [2] of 985 nM.

`Cc1cc(-c2ncnc3[nH]c(-c4ccc(N5CCN(CC6CCN(c7ccc(N8CCC(=O)NC8=O)c(C)c7)CC6)CC5)cc4)nc23)ccc1[C@@H](C)NC(=O)c1noc(C(C)(C)C)n1` [Example 73, (R)-5-(tert-butyl)-N-(1-(4-(8-(4-(4-((1-(4-(2,4-dioxotetrahydropyrimidin-1(2H)-yl)-3-methylphenyl)piperidin-4-yl)methyl)piperazin-1-yl)phenyl)-9H-purin-6-yl)-2-methylphenyl)ethyl)-1,2,4-oxadiazole-3-carboxamide] returned a DC50 in assay [1] of 1.1 nM. The IC50 in assay [2] was more than 10000 nM.

`CC(C)(C)c1nc(C(=O)N[C@@H]2CCc3cc(-c4ncnc5[nH]c(-c6ccc(N7CCN(CC8CCN(c9ccc(N%10CCC(=O)NC%10=O)cc9)CC8)CC7)cc6)cc45)ccc32)no1` [Example 156, (R)-5-(tert-butyl)-N-(5-(6-(4-(4-((1-(4-(2,4-dioxotetrahydropyrimidin-1(2H)-yl)phenyl)piperidin-4-yl)methyl)piperazin-1-yl)phenyl)-7H-pyrrolo[2,3-d]pyrimidin-4-yl)-2,3-dihydro-1H-inden-1-yl)-1,2,4-oxadiazole-3-carboxamide]: in assay [1], the DC50 was found to be 2.43 nM. In assay [2], this compound showed a half-inhibitory concentration (IC50) of more than 10000 nM.

In turn, `C[C@@H](NC(=O)c1noc(C(C)(C)C)n1)c1ccc(-c2ncnc3[nH]c(-c4ccc(N5CCN(CC6CCN(c7ccc(N8CCC(=O)NC8=O)cc7)CC6)CC5)cc4)cc23)cc1CO` [Example 118, (R)-5-(tert-butyl)-N-(1-(4-(6-(4-(4-((1-(4-(2,4-dioxotetrahydropyrimidin-1(2H)-yl)phenyl)piperidin-4-yl)methyl)piperazin-1-yl)phenyl)-7H-pyrrolo[2,3-d]pyrimidin-4-yl)-2-(hydroxymethyl)phenyl)ethyl)-1,2,4-oxadiazole-3-carboxamide] gave a 50% degradation concentration (DC50) in assay [1] of 0.5 nM. Besides, the half-maximal inhibitory concentration (IC50) in assay [2] is more than 10000 nM.
